Measured values as given in patent US9783505B2, “Substituted diaminopyrimidyl compounds, compositions thereof, and methods of treatment therewith” (Signal Pharmaceuticals, LLC, priority 2013, dated 2017).

Assays:
PKC delta = target: T1, PKC delta (Homo sapiens, UniProt Q05655); experiment: PKC delta Assay (384-well time resolved fluorescence, IMAP TR-FRET); format: biochemical; settings: selectivity for PKC-theta over PKC-delta
T1 construct: purchased Invitrogen
In short: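 1.5 nM enzyme with 200 nM Fam-labeled S6-derived peptide and 10 μM ATP in 50 mM HEPES pH 7.6, 10 mM MgCl2, 1 mM DTT, 0.01% Triton X-100, 0.01% BSA, 0.1 mM EDTA; 2 hours at room temperature. Stopped with IMAP binding reagent and Tb donor, incubated overnight, read by TR-FRET.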

His-PKC-theta = target: T2, His-PKC-theta (Homo sapiens, UniProt Q04759); experiment: PKC-theta Assay (384-well time resolved fluorescence, IMAP TR-FRET); format: biochemical; settings: read-out: Act. Level (IC50 in the PKC-theta Assay)
T2 construct: His; purchased Invitrogen
In short: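 Fam-labeled S6-derived peptide (200 nM) and 10 μM ATP were reacted with 142 pM enzyme for 2 h at room temperature in HEPES pH 7.6 buffer with MgCl2, DTT, Triton X-100, BSA and EDTA. The reaction was stopped with IMAP progressive binding reagent plus Tb donor, incubated overnight, then TR-FRET read.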

T1 sequence (Q05655 whole entry): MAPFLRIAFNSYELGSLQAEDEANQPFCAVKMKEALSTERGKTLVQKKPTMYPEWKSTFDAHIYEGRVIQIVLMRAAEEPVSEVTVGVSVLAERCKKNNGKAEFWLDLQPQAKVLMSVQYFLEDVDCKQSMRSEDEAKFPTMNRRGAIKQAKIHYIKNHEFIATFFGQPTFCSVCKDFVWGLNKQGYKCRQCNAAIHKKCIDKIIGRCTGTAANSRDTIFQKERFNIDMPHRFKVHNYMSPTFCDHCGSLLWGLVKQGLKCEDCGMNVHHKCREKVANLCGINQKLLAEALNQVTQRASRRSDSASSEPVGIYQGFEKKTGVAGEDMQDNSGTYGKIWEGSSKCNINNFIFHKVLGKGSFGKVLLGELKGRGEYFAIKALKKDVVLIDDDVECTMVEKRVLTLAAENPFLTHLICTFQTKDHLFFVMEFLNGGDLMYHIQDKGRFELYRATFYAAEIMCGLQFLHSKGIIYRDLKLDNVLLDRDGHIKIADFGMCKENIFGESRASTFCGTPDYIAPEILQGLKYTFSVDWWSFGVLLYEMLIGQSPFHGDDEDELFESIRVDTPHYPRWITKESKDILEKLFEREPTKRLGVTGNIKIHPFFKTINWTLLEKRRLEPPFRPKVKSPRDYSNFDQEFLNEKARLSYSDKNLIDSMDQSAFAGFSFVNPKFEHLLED
T2 sequence (Q04759 whole entry): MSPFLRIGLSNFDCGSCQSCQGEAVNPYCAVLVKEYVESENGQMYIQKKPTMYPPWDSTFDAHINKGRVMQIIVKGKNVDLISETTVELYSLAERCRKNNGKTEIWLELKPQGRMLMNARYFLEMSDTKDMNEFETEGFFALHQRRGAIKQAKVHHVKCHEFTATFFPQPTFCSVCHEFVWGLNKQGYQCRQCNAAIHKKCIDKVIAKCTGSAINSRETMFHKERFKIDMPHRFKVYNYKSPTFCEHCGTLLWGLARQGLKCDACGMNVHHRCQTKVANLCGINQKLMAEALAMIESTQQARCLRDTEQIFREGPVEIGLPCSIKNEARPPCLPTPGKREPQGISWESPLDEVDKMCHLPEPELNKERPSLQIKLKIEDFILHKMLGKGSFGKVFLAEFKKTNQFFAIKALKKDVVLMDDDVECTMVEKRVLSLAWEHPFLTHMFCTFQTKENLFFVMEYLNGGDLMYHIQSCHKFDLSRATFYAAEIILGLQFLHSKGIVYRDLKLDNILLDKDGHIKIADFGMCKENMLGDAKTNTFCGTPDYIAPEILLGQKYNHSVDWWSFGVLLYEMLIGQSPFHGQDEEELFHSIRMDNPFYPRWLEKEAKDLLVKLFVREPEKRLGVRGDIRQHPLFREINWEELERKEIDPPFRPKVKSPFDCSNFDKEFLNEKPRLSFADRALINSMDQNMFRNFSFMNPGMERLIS

Structure (SMILES)	IC50 (His-PKC-theta) [nM]	Sel. Level (ratio of IC50 PKC-delta/IC50 PKC-theta) (PKC delta)
CN1C(=O)C(CCNc2ncc(C#N)c(N[C@@H]3CC[C@H](O)C(C)(C)C3)n2)c2ccccc21 (stereo partly shown) [Cmpd 300]	800 to 2000	G (selectivity between 5- and 20-fold (selectivity level G))
C[C@]1(O)CC2(C[C@H](Nc3nc(NCCC4C(=O)Nc5ccccc54)ncc3C#N)C2)C1 (stereo partly shown) [Cmpd 302]	800 to 2000	G (selectivity between 5- and 20-fold (selectivity level G))
CC1(C)C[C@H](Nc2nc(NCC[C@]3(C)C(=O)Nc4ccccc43)ncc2C#N)CC[C@@H]1O [Cmpd 303]	2000 to 10000	H (selectivity level of 5-fold or less (selectivity level H))
CC1(C)[C@@H](O)CCC[C@H]1Nc1nc(NCCC2C(=O)Nc3ccccc32)ncc1C#N (stereo partly shown) [Cmpd 308]	100 to 800	H (selectivity level of 5-fold or less (selectivity level H))
CC1(C)[C@@H](Nc2nc(NCCC3C(=O)Nc4cc(F)ccc43)ncc2C#N)CCC[C@@H]1O (stereo partly shown) [Cmpd 309]	800 to 2000	G (selectivity between 5- and 20-fold (selectivity level G))
CC1(C)[C@H](O)CCC[C@H]1Nc1nc(NCCC2C(=O)Nc3cc(F)ccc32)ncc1C#N (stereo partly shown) [Cmpd 310]	800 to 2000	H (selectivity level of 5-fold or less (selectivity level H))
CC1(C)[C@H](O)CCC[C@@H]1Nc1nc(NCCC2C(=O)Nc3cc(F)ccc32)ncc1C#N (stereo partly shown) [Cmpd 311]	100 to 800	G (selectivity between 5- and 20-fold (selectivity level G))
CC1(C)[C@@H](O)CCC[C@H]1Nc1nc(NCCC2C(=O)Nc3cc(F)ccc32)ncc1C#N (stereo partly shown) [Cmpd 312]	100 to 800	G (selectivity between 5- and 20-fold (selectivity level G))
CC1(C)[C@@H](Nc2nc(NCCC3C(=O)Nc4ccc(F)cc43)ncc2C#N)CCC[C@@H]1O (stereo partly shown) [Cmpd 313]	100 to 800	F (selectivity of between 20- and 100-fold (selectivity level F))
CC1(C)[C@H](O)CCC[C@H]1Nc1nc(NCCC2C(=O)Nc3ccc(F)cc32)ncc1C#N (stereo partly shown) [Cmpd 314]	100 to 800	H (selectivity level of 5-fold or less (selectivity level H))
CC1(C)[C@H](O)CCC[C@@H]1Nc1nc(NCCC2C(=O)Nc3ccc(F)cc32)ncc1C#N (stereo partly shown) [Cmpd 315]	100 to 800	G (selectivity between 5- and 20-fold (selectivity level G))
Cc1cc(CCNc2ncc(C#N)c(N[C@H]3CC[C@@H](C(N)=O)CC3)n2)ncn1 [Cmpd 319]	2000 to 10000	H (selectivity level of 5-fold or less (selectivity level H))
N#Cc1cnc(NCCc2c[nH]c3cnccc23)nc1N[C@H]1CC[C@@H](C(N)=O)CC1 [Cmpd 320]	100 to 800	F (selectivity of between 20- and 100-fold (selectivity level F))
Cc1nccnc1CCNc1ncc(C#N)c(N[C@H]2CC[C@@H](C(N)=O)CC2)n1 [Cmpd 321]	2000 to 10000	H (selectivity level of 5-fold or less (selectivity level H))
Cc1ncccc1CCNc1ncc(C#N)c(N[C@H]2CC[C@@H](C(N)=O)CC2)n1 [Cmpd 322]	100 to 800	G (selectivity between 5- and 20-fold (selectivity level G))
CCc1cccn1CCNc1ncc(C#N)c(N[C@H]2CC[C@@H](C(N)=O)CC2)n1 [Cmpd 323]	100 to 800	G (selectivity between 5- and 20-fold (selectivity level G))
Cc1cccn1CCNc1ncc(C#N)c(N[C@H]2CC[C@@H](C(N)=O)CC2)n1 [Cmpd 324]	800 to 2000	G (selectivity between 5- and 20-fold (selectivity level G))
CN1C(=O)C(CCNc2ncc(C#N)c(N[C@@H]3C[C@H](C(N)=O)C3(C)C)n2)c2ccccc21 (stereo partly shown) [Cmpd 325]	100 to 800	F (selectivity of between 20- and 100-fold (selectivity level F))
CC1(C)C[C@H](Nc2nc(NCCc3cc(C(F)(F)F)ccn3)ncc2C#N)CC[C@@H]1O [Cmpd 326]	100 to 800	G (selectivity between 5- and 20-fold (selectivity level G))
COc1cccc(CCNc2ncc(C#N)c(N[C@H]3CC[C@@H](O)CC3)n2)n1 [Cmpd 327]	2000 to 10000	H (selectivity level of 5-fold or less (selectivity level H))
CCOc1cc(CCNc2ncc(C#N)c(N[C@H]3CC[C@@H](O)CC3)n2)ccn1 [Cmpd 328]	2000 to 10000	H (selectivity level of 5-fold or less (selectivity level H))
COc1cncc(CCNc2ncc(C#N)c(N[C@@H]3CC[C@H](O)C(C)(C)C3)n2)c1 [Cmpd 329]	100 to 800	G (selectivity between 5- and 20-fold (selectivity level G))
CCOc1cc(CCNc2ncc(C#N)c(N[C@@H]3CC[C@H](O)C(C)(C)C3)n2)ccn1 [Cmpd 330]	100 to 800	G (selectivity between 5- and 20-fold (selectivity level G))
COc1cncc(CCNc2ncc(C#N)c(N[C@H]3CC[C@@H](O)CC3)n2)c1 [Cmpd 331]	2000 to 10000	H (selectivity level of 5-fold or less (selectivity level H))

Further lines, with some results ahead:

IC50 (His-PKC-theta) [nM]	Structure (SMILES)	Sel. Level (ratio of IC50 PKC-delta/IC50 PKC-theta) (PKC delta)
100 to 800	CC(F)(F)COc1ncncc1CNc1ncc(C#N)c(N[C@@H]2CCC[C@@H](O)C2(C)C)n1 [Cmpd 297]	F (selectivity of between 20- and 100-fold (selectivity level F))
< 100	CC(F)(F)COc1ncncc1CNc1ncc(C#N)c(N[C@H]2CCC[C@@H](O)C2(C)C)n1 [Cmpd 298]	E (selectivity (Sel. Level=ratio of IC50 PKC-delta/IC50 PKC-theta) of >100-fold (selectivity level E))
< 100	CC(F)(F)COc1ncncc1CNc1ncc(C#N)c(N[C@@H]2CCC[C@H](O)C2(C)C)n1 [Cmpd 299]	E (selectivity (Sel. Level=ratio of IC50 PKC-delta/IC50 PKC-theta) of >100-fold (selectivity level E))
100 to 800	C[C@]1(O)CC2(C[C@H](Nc3nc(NCCC4C(=O)Nc5ccccc54)ncc3C#N)C2)C1 (stereo partly shown) [Cmpd 301]	F (selectivity of between 20- and 100-fold (selectivity level F))
100 to 800	CC1(C)C[C@H](Nc2nc(NCC[C@@]3(C)C(=O)Nc4ccccc43)ncc2C#N)CC[C@@H]1O [Cmpd 304]	F (selectivity of between 20- and 100-fold (selectivity level F))
100 to 800	CC1(C)[C@@H](Nc2nc(NCCC3C(=O)Nc4ccccc43)ncc2C#N)CCC[C@@H]1O (stereo partly shown) [Cmpd 305]	G (selectivity between 5- and 20-fold (selectivity level G))
100 to 800	CC1(C)[C@H](O)CCC[C@H]1Nc1nc(NCCC2C(=O)Nc3ccccc32)ncc1C#N (stereo partly shown) [Cmpd 306]	H (selectivity level of 5-fold or less (selectivity level H))
100 to 800	CC1(C)[C@H](O)CCC[C@@H]1Nc1nc(NCCC2C(=O)Nc3ccccc32)ncc1C#N (stereo partly shown) [Cmpd 307]	G (selectivity between 5- and 20-fold (selectivity level G))
< 100	CC1(C)[C@@H](O)CCC[C@H]1Nc1nc(NCCC2C(=O)Nc3ccc(F)cc32)ncc1C#N (stereo partly shown) [Cmpd 316]	F (selectivity of between 20- and 100-fold (selectivity level F))
< 100	CC1(C)[C@@H](c2nc[nH]n2)C[C@H]1Nc1nc(NCCC2C(=O)Nc3ccccc32)ncc1C#N (stereo partly shown) [Cmpd 317]	E (selectivity (Sel. Level=ratio of IC50 PKC-delta/IC50 PKC-theta) of >100-fold (selectivity level E))
< 100	CC1(C)[C@@H](C(N)=O)C[C@H]1Nc1nc(NCCC2C(=O)Nc3ccccc32)ncc1C#N (stereo partly shown) [Cmpd 318]	E (selectivity (Sel. Level=ratio of IC50 PKC-delta/IC50 PKC-theta) of >100-fold (selectivity level E))
< 100	CC1(C)[C@H](Nc2nc(NCc3cncnc3OCC(F)F)ncc2C#N)C[C@]1(C)O [Cmpd 332]	E (selectivity (Sel. Level=ratio of IC50 PKC-delta/IC50 PKC-theta) of >100-fold (selectivity level E))
< 100	CC(F)(F)COc1ncncc1CNc1ncc(C#N)c(N[C@@H]2C[C@](C)(O)C2(C)C)n1 [Cmpd 333]	E (selectivity (Sel. Level=ratio of IC50 PKC-delta/IC50 PKC-theta) of >100-fold (selectivity level E))
< 100	CC1(C)[C@H](Nc2nc(NCc3cncnc3OCCC(F)(F)F)ncc2C#N)C[C@]1(C)O [Cmpd 334]	E (selectivity (Sel. Level=ratio of IC50 PKC-delta/IC50 PKC-theta) of >100-fold (selectivity level E))
